Data taken from PubChem BioAssay (NCI).
Several values for one entry are separate records, joined by “and”; a condition that tells them apart may be missing. Equal values may be shown once.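 Cultured in 96-well plates, cells were exposed to test compound for 48 hours across five concentrations. GI50 is the concentration that inhibits growth by half. At the TGI there is no net growth.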

What was measured:
Experiment in all cases: growth of human tumour cells (NCI), 48 h
ACHN renal = test system: ACHN renal
OVCAR-5 ovarian = test system: OVCAR-5 ovarian
DU-145 prostate = test system: DU-145 prostate
SF-295 CNS = test system: SF-295 CNS
K-562 leukemia = test system: K-562 leukemia
MDA-MB-435 = test system: MDA-MB-435
HL-60(TB) leukemia = test system: HL-60(TB) leukemia
T-47D breast = test system: T-47D breast
786-0 renal = test system: 786-0 renal
HCT-116 colon = test system: HCT-116 colon

Compound | GI50 (ACHN renal) | TGI (ACHN renal) | GI50 (OVCAR-5 ovarian) | TGI (OVCAR-5 ovarian) | GI50 (DU-145 prostate) | TGI (DU-145 prostate) | GI50 (SF-295 CNS) | TGI (SF-295 CNS) | GI50 (K-562 leukemia) [nM] | TGI (K-562 leukemia) | GI50 (MDA-MB-435) | TGI (MDA-MB-435) | GI50 (HL-60(TB) leukemia) | TGI (HL-60(TB) leukemia) | GI50 (T-47D breast) | TGI (T-47D breast) | GI50 (786-0 renal) | TGI (786-0 renal) | GI50 (HCT-116 colon) | TGI (HCT-116 colon)
C=CC(=O)Nc1cccc(C)c1Nc1cc(-c2cccnc2Cc2c(C)c(OC)cc(OC)c2C)ncn1 | 17.3 µM | > 100 µM | 27.4 µM | > 100 µM | 16.7 µM | > 100 µM | 6470 nM | 73.9 µM | 7550 | > 100 µM | 12.1 µM | 31.3 µM | 5220 nM | 48.9 µM | 7.92 µM | > 100 µM | 10.2 µM | 39.6 µM | 16600 nM | 44.6 µM
C=CCOC1OC(CO[Si](C)(C)C(C)(C)C)C(OCc2ccccc2)C(OCc2ccccc2)C1OCc1ccccc1 (configuration not stated) |  | > 100 µM |  | > 100 µM |  | > 100 µM |  | 54.9 µM |  | > 100 µM |  | > 100 µM |  | > 100 µM |  | > 100 µM |  | 22.3 µM |  | 65.9 µM
O=C1C=C(Br)c2c(-c3ccccc3)oc3cccc1c23 |  | > 100 µM |  | > 100 µM |  | > 100 µM |  | > 100 µM |  | > 86.8 µM |  | > 100 µM |  | > 63.2 µM |  | > 100 µM |  | > 100 µM |  | > 100 µM
Cc1ccc(NC(=O)/C=C/c2ccccc2)c(C(N)=O)c1 | 11 µM | > 96.6 µM | 9.68 µM | > 100 µM | 3.81 µM | > 41.9 µM | 2790 nM | > 56.7 µM | 1060 | > 100 µM | 0.526 µM | 2.44 µM | 1750 nM | 6.7 µM | 5.11 µM | > 74.4 µM | 6.41 µM | 53 µM | 2960 nM | > 76.8 µM
C[C@]12CCC3[C@@H](CC[C@@H]4c5nonc5CC[C@]34C)C1CCC(=O)N2 (some centres not stated) |  | > 100 µM |  | > 100 µM | > 100 µM | > 100 µM |  | > 100 µM |  | > 100 µM | > 100 µM | > 100 µM |  | > 100 µM | > 100 µM | > 100 µM |  | > 100 µM |  | > 100 µM
O=C(C1CCCCC1)[C@@H]1[C@]2(C(=O)NC3CCCCC32)[C@@H]2CCCN2[C@@]12C(=O)NC1CCC(Cl)CC12 (some centres not stated) | 103 µM | 222 µM | 149 µM | 284 µM | 128 µM | 259 µM | 149000 nM | 299 µM | 41200 | 220 µM | 112 µM | 245 µM | 35300 nM | 176 µM | 107 µM | 279 µM | 151 µM | 319 µM | 71600 nM | 208 µM
O=S(=O)(NCCNC/C=C/c1ccc(Br)cc1)c1cccc2cnccc12 | 10.3 µM and 12.5 µM | 22.8 µM and 26.2 µM | 13.4 µM and 12.9 µM | 27.5 µM and 28 µM | 12.4 µM and 14.5 µM | 25.1 µM and 27.6 µM | 6470 nM and 11600 nM | 22.9 µM and 25.1 µM | 6630 | > 36.7 µM and 27.3 µM | 9.22 µM and 12.5 µM | 25.2 µM and 25.6 µM | > 24600 nM and 9480 nM | > 49.4 µM and 28.1 µM | 3.93 µM and 6.45 µM | 18.4 µM and 26 µM | 4.22 µM and 9.27 µM | 19.8 µM and 21.9 µM | 7600 nM and 11200 nM | 22 µM and 24 µM
N/C(=N\N=C\c1ccc(-c2ccccc2)cc1)N[N+](=O)[O-] | > 100 µM | > 100 µM | > 100 µM | > 100 µM | 5.76 µM | > 100 µM | 2610 nM | > 100 µM | 481 | > 100 µM | 0.226 µM | 0.599 µM | 1900 nM | 7.58 µM | 4.8 µM | > 100 µM | 10.4 µM | > 100 µM | 1970 nM | > 100 µM
Cc1cc2c3ccc(C)[n+](C)c3ccc2n1C | 21.5 µM | > 100 µM | 5.42 µM | 44 µM | 5.09 µM | 51.5 µM | 2340 nM | 15.6 µM | 1520 | > 100 µM | 5.12 µM | 21.9 µM | 1920 nM | 18.7 µM | 4.76 µM | 49 µM | 5 µM | > 100 µM | 2310 nM | 33.1 µM
COc1ccc(C(OCC2OC(n3ccc(NC(=O)c4ccccc4)nc3=O)C(O)C2O)(c2ccccc2)c2ccccc2)cc1 (configuration not stated) |  | 7.59 µM |  | 3.79 µM |  | 10.3 µM |  | 3.49 µM |  | 5.58 µM |  | 5.73 µM |  | 4.36 µM |  | 9.42 µM |  | 3.69 µM |  | 3.23 µM
O=C1C(=O)c2c(nc3ccc(Cl)cn23)-c2ccccc21 | 0.591 µM | 1.88 µM | 0.593 µM | 1.15 µM | 0.223 µM | 0.452 µM | 1520 nM | 3.13 µM | 163 | > 100 µM | 0.183 µM | 0.35 µM | 235 nM |  | 0.394 µM | 1.6 µM | 0.775 µM | 1.82 µM | 311 nM | 3.73 µM
CNC(=O)OCc1c(COC(=O)NC)c(C)n(-c2ccc(Br)cc2)c1C |  | 12.7 µM |  | 77.2 µM |  | 36.2 µM |  | 31.9 µM |  | 95.1 µM |  | 34 µM |  | 31.9 µM |  | 54.9 µM |  | 27.8 µM |  | 25.8 µM
O[C@H]1CO[C@H]2[C@@H]1OC[C@@H]2Oc1ccc(Nc2ccnc(Nc3ccc(O[C@H]4CO[C@H]5[C@@H]4OC[C@@H]5O)c(Cl)c3)n2)cc1Cl | 2.8 µM | 10.6 µM | 2.47 µM | 8.03 µM | 1.56 µM | 4.19 µM | 1650 nM | 3.22 µM | 1270 | 18.4 µM | 2.31 µM | 10 µM | 1570 nM | 4.7 µM | 0.456 µM | 2.89 µM | 2.98 µM | 15.1 µM | 2240 nM | 9.12 µM
